Test results as given in paper PMC7463999, “Antioxidant, Anti-inflammatory and Neuroprotective Profiles of Novel 1,4-Dihydropyridine Derivatives for the Treatment of Alzheimer’s Disease” (Antioxidants, 2020).
“And” between values parts separate entries of the source, which are not always exact repeats. Equal entries are not always repeated. Where two headings read alike, the source gives them in different places.

Legend:
[1] = tested on: primary glial cultures stimulated with LPS; assay: Nitrite production reduction (Griess) in LPS-stimulated mixed primary glial cultures; format: cell-based, rat; conditions: for EC50: Rattus norvegicus, LPS 1 μg/mL, 24 h pre-incubation, 18 h co-incubation
[2] = Oxygen Radical Absorbance Capacity (ORAC) assay; conditions: Trolox equivalents, ORAC of Trolox = 1.0; AAPH, fluorescein
[3] = tested on: voltage-dependent Ca^2+ channels (VDCC); assay: Voltage dependent calcium channels blockade assay (Fluo-4, 70 mM K+); format: cell-based, human; conditions: compounds at 10 μM, SH-SY5Y, basal = 100% response
Description: Free cytosolic Ca^2+ was measured using the fluorescence Ca^2+ indicator Fluo-4/AM. SH-SY5Y cells were seeded in 96-well black bottom transparent plates at a density of 60,000 cells per well and cultured until they reach confluence. Cells were incubated with the Ca^2+ sensitive dye Fluo-4/AM at 5 µM in Krebs-HEPES buffer (KH) (145 mM NaCl, 4.9 mM KCl, 1.2 mM MgCl2, 2 mM CaCl2, 10 mM HEPES, 11 mM glucose, pH 7.4), and 0.05% pluronic acid, for 1 h at 37 °C in the dark. Then, cells were washed twice with KH solution to remove the excess of probe and compounds in solution were added. Test compounds at 10 µM were incubated 10 min before K^+ 70 mM was applied to trigger cytosolic Ca^2+ increase. Fluorescence was measured in a fluorescence microplate reader (FLUOstar Optima, BMG, Ortenberg, Baden-Wuerttemberg, Germany) at excitation and emission wavelengths 485 and 520 nm, respectively. To normalize Fluo-4 signals, Triton X-100 (5%) and subsequently MnCl2 1 M were applied to the cells to register maximal and minimal fluorescence, respectively. Data were calculated as a percentage of Fluorescence increment with respect to Fmax − Fmin. The percentage of response was calculated considering basal conditions as 100% response.
Voltage dependent Calcium Channel Blockade Assay
Free cytosolic Ca2+ was measured using the fluorescence Ca2+ indicator Fluo-4/AM.
SH-SY5Y cells were seeded in 96-well black bottom transparent plates at a density of 60,000 cells per well until reaching confluence. Cells were incubated with the Ca2+ sensitive dye fluo-4 AM at 5 µM in Krebs-Hepes buffer (KH) (145 mM NaCl, 4.9 mM KCl, 1.2 mM MgCl2, 2 mM CaCl2, 10 mM HEPES, 11 mM glucose, pH 7.4), and 0.05 % pluronic acid, for 1 h at 37 °C in the dark. Then, cells were washed twice with KH solution to remove the excess of probe and compounds in solution were added. Tested compounds at 10 µM were incubated 10 min before K+ 70 mM was applied to evoke the increment of cytosolic Ca2+. The experiments were analyzed at excitation and emission wavelengths of 485 and 520 nm, respectively, and fluorescence was measured in a fluorescence microplate reader (FLUOstar Optima, BMG, Germany). To normalize Fluo-4 signals, Triton X-100 (5 %) and subsequently MnCl2 1 M were applied to cells for registering both maximal and minimal fluorescence, respectively. Data were calculated as % F increment respect to Fmax – Fmin. % of blockade was calculated considering basal conditions as 100 % response.
Then, the donor filter plate was carefully put on the acceptor plate to form a “sandwich”, which was left undisturbed for 4 h at 25 °C. During this time, the compounds diffused from the donor plate through the polar brain lipid membrane (area = 0.28 cm2) into the acceptor plate. After incubation, the donor plate was carefully removed. UV plate reader determined the concentration of compounds and commercial drugs in both acceptor and […]

[4] = tested on: SH-SY5Y human neuroblastoma cells; assay: Neuroprotection against okadaic acid (tau hyperphosphorylation), MTT; conditions: 18 h; for percentage of protection, okadaic acid toxicity: 1 μM, OA 20 nM; for viability at 1 µM: Homo sapiens, SH-SY5Y, read-out: cell viability (percentage survival), okadaic acid toxicity
Description: (§1) Cells were pre-incubated with the corresponding compound at 1 μM in neuroblastoma culture medium. After 24 h, the medium was removed and replaced with 1% FBS neuroblastoma culture media containing the corresponding compound at 1 µM and the toxic stimuli, namely a mixture of rotenone and oligomycin A (R/O, 30 μM/10 μM, respectively), okadaic acid (OA) at 20 nM or a high concentration of KCl (70 mM). Cells were co-incubated for further 24 h with the R/O mixture or KCl solution, or 18 h with the OA solution. […] Control cells were incubated with the same amount of dimethyl sulfoxide (DMSO) without any drug. After the co-incubation period, cell viability was assessed by the 3-(4,5-dimethylthiazol-2-yl)-2,5-diphenyltetrazolium bromide (MTT) reduction method [56]; basal condition was considered as 100% survival.
(§2) Neuroprotection in the SH-SY5Y neuroblastoma cell line
(§3) A pre- and co-incubation protocol was followed. Cells were pre-incubated with the
(§4) corresponding compound at 1 M in neuroblastoma culture medium. After 24 h, the
(§5) medium was removed and replaced with 1% FBS neuroblastoma culture media
(§6) containing the corresponding compound at 1 µM and the toxic stimuli, namely a mixture
(§7) of rotenone and oligomycin A (30 M/10 M respectively), okadaic acid at 20 nM or a
(§8) high concentration of potassium chloride (70 mM). Cells were co-incubated for further
(§9) 24 h with the rotenone and oligomycin A or potassium chloride solution, or 18 h with the
(§10) okadaic acid solution. Control cells were incubated with the same amount of DMSO
(§11) and reference compounds in the rotenone-oligomycin A, okadaic acid or high
(§12) concentration of potassium models respectively. After the co-incubation period, cell
(§13) viability was assessed by the MTT-reduction method [11] considering basal conditions
Viability assay by MTT-reduction
(§14) SH-SY5Y, primary glial culture cells and rat hippocampal slices viability was
(§15) measured by the MTT assay [11]. This method is based on the cleavage of the tetrazolium
(§16) ring of MTT by active dehydrogenases, generating a formazan precipitate. At the end of
(§17) the neuroprotection or toxicity experiments, an MTT solution was added to each well to
(§18) reach a final concentration of 0.5 mg/mL. After 2 additional hours of incubation, the
(§19) solution was replaced by 100 or 300 µL of DMSO to solubilize the formazan precipitate.
(§20) in control cells was considered as 100 % of cell survival and used to reference all
(§21) treatments. The percentage of protection was calculated as follows: the percentage of cell
(§22) survival obtained with the toxic stimuli-treated cells subtracted to 100 was normalized to
(§23) 100 % of cell death. The percentage of protection was obtained by subtracting the
(§24) percentage of cell death in presence of the tested compound to 100 %.

[5] = Blood-brain barrier permeation assay (PAMPA), porcine brain lipid; format: in vitro ADME; conditions: for PAMPA Prediction: BBB permeability class from Pe
[6] = tested on: blood-brain barrier (passive diffusion); assay: as above; format: in vitro ADME; conditions: PAMPA; 100 µM, PBS pH 7.4, 4 h at 25 °C, mean ± SEM; read-out: PAMPA Pe
DPPH reduction assay = conditions: DPPH 100 µM, 1 h in the dark
Description: The final solution was incubated during 1 h in the dark. […] Results are expressed as a percentage of DPPH reduction by subtracting blank absorbance (Absblank) to sample absorbance (Abssample) and corrected by control absorbance, (Abscontrol, DPPH alone, as expressed below: % DPPH reduction = [100 − ((Abssample − Absblank) × 100/Abscontrol)](1)
Briefly, the compounds under assay (150 µL) at the desired concentration (1, 10, 60 and 100 µM) in methanol/water (80/20) were added to a solution of DPPH in methanol/water (80/20) (150 µL, 100 µM), in a clear bottom 96-well plate, and the final solution was incubated 1 h in the dark. Then, DPPH absorbance of blank (methanol/water), control
Optima plate-reader (BMG Labtech, Ortenberg, Germany) in duplicate.
Results are expressed as % of absorbance (Abs) reduction of control after subtracting blank absorbance, as expressed
% DPPH reduction = [100 – (Abssample-Absblank) x 100]/Abscontrol

GSK-3β = GSK-3β (Homo sapiens, UniProt P49841); assay: GSK-3β inhibition, Kinase-Glo luminescence assay
[7] = tested on: neuroblastoma cell line SH-SY5Y; assay: Cytotoxicity (neurotoxicity) in SH-SY5Y, MTT; conditions: 24 h
Description: (§25) LD50 in SH-SY5Y and primary glial culture cells
(§26) cell line SH-SY5Y and primary glial cultures. Viability was measured as
(§27) MTT reduction in presence of increasing concentrations of derivatives.
(§28) Values are expressed as LD50 calculated from dose-response curves of four
(§29) different concentrations. Data are expressed as mean  SEM of five
different experiments in triplicate.
(§30) SH-SY5Y or primary glial cells were cultured in 96-well plates for 24 h. Then, cells
(§31) were treated with the compounds at 10, 30 and 100 µM in the corresponding culture media
(§32) with 1 % FBS After 24 h, cell viability was assessed by the MTT-reduction assay. Control
(§33) cells were incubated with the same concentration of DMSO (0.1 % final concentration)
Viability assay by MTT-reduction
as §14, §15, §16, §17, §18, §19, §20

primary glial cultures [8] = assay: Cytotoxicity (gliotoxicity) in primary glial cultures, MTT; conditions: 24 h
Description: as §26, §27, §28, §29
different experiments in triplicate.
(§34) Mixed glial cultures were obtained from cerebral cortex of 2-5-day-old Sprague-Dawley rats. After removal of blood vessels and meninges, the forebrains were dissociated in DMEM/F12 medium. After mechanical dissociation, cells were plated (3x10^5 cells/ml) in DMEM/F12 medium with 20 % fetal bovine serum (FBS) and 1 % penicillin/streptomycin (10,000 units), at 37 °C and in a 5 % CO2-supplemented air atmosphere. After 5 days, medium was substituted by DMEM/F12 medium with 10 %
(§35) FBS. Cells were cultured for 7-10 days before treatment.
as §30, §31, §32, §33
Viability assay by MTT-reduction
as §14
measured by the MTT assay [11].

[9] = tested on: SH-SY5Y human neuroblastoma cells; assay: Neuroprotection against rotenone/oligomycin A (oxidative stress), MTT; conditions: 1 μM, rotenone 30 μM / oligomycin A 10 μM, 24 h; for percentage of survival, R/O toxicity: basal = 100%
Description: as §1, §2, §3, §4, §5, §6, §7, §8, §9, §10, §11, §12, §13
Viability assay by MTT-reduction
as §14, §15, §16, §17, §18, §19, §20, §21, §22, §23, §24

[10] = tested on: primary glial cultures stimulated with LPS; conditions: read-out: EC50 Nitrite Reduction; LPS 1 μg/mL; cited from earlier work
rat hippocampal slices [11] = conditions: OA 1 μM alone, 6 h
Description: Finally, cell viability and ROS production were measured.
After the co-incubation period, cell
as §13
Viability assay by MTT-reduction
as §14, §15, §16, §17, §18, §19, §20, §21, §22, §23, §24
Acute treatment in rat hippocampal slices
3-4 months-old Sprague-Dawley rats were beheaded and both hippocampi dissected
0.5 mM CaCl2; 11 mM glucose and 200 mM sucrose at pH 7.4). […]
All values are expressed as mean ± S.E.M. IC50 and LD50 values were calculated by […]

primary glial cultures [12] = conditions: Sprague-Dawley, rat, 24 h
Description: as §26, §27, §28, §29
different experiments in triplicate.
as §34, §35, §30, §31, §32, §33
Viability assay by MTT-reduction
as §14
measured by the MTT assay [11].

[13] = tested on: neuroblastoma cell line SH-SY5Y; conditions: human, 24 h
Description: as §25, §26, §27, §28, §29
different experiments in triplicate.
as §30, §31, §32, §33
Viability assay by MTT-reduction
as §14, §15, §16, §17, §18, §19, §20

[14] = tested on: SH-SY5Y human neuroblastoma cells; assay: Neuroprotection against 70 mM K+ ([Ca2+]c overload), MTT; conditions: 1 μM, 24 h, basal = 100%
Description: as §1, §2, §3, §4, §5
containing the corresponding compound at 1 µM and the toxic stimuli, namely a mixture […]
viability was assessed by the MTT-reduction method [11] considering basal conditions […]
measured by the MTT assay [11]. […]
treatments. The percentage of protection was calculated as follows: the percentage of cell […]

rat hippocampal slices [15] = assay: ROS production (H2DCFDA) in rat hippocampal slices treated with okadaic acid; format: cell-based; conditions: OA 1 μM + compound 10 μM, 6 h

Sequence of GSK-3β (P49841 whole entry): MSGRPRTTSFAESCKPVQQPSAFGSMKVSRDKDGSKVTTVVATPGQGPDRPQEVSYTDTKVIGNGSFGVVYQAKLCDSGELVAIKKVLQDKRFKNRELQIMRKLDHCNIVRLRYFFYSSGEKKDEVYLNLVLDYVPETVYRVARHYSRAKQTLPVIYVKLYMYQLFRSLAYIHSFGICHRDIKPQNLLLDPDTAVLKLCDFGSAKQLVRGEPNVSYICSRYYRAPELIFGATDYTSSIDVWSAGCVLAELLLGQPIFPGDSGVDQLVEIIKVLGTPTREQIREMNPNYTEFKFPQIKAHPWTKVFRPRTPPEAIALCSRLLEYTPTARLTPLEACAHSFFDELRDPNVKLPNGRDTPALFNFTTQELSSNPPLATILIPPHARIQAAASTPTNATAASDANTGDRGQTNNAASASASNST

| SMILES | EC50 [1] | ORAC (T. Eq.) [2] | VDCC % Response [3] | viability at 1 µM [4] | PAMPA Prediction [5] | Papp at 4 h, 100 µM [6] | IC50 (DPPH reduction assay) | IC50 (GSK-3β) | Ki (GSK-3β) | SH-SY5Y LD50 [7] | Glial cultures LD50 (primary glial cultures [8]) | percentage of survival, R/O toxicity [9] | percentage of protection, R/O toxicity [9] | further results |
| --- | --- | --- | --- | --- | --- | --- | --- | --- | --- | --- | --- | --- | --- | --- |
| Cc1[nH]nc2c1C(c1ccccc1Cl)C(C#N)=C(N)N2 (centres unmarked) [4c] | 14.4 ± 2.19 µM | 0.94 T. Eq. and 0.94 ± 0.04 T. Eq. | 58.7 ± 6.8% | 74% | CNS+ | 9.4 ± 3.5 ×10⁻⁶ cm/s | 23.3 ± 2.6 µM | 1.51 ± 1.1 µM | 1.06 µM | > 100 µM | > 100 µM | 81.3% |  | percentage of protection, okadaic acid toxicity [4]: over 50% |
| C[S+]([O-])CCCCN=C=S (centres unmarked) [Sulforaphane] |  |  |  |  |  |  |  |  |  |  |  |  |  | EC50 [10]: 1.4 ± 0.3 µM |
| Cc1[nH]nc2c1C(c1ccc(Cl)cc1)C(C#N)=C(N)N2 (centres unmarked) [4e] | 4.4 ± 0.35 µM | 0.66 T. Eq. and 0.66 ± 0.07 T. Eq. | 6.46% and 6.46 ± 1.6% | 64.6% | CNS+ | 12.9 ± 3.6 ×10⁻⁶ cm/s | 20.9 ± 5.91 µM | 1.94 ± 0.5 µM | 1.36 µM | > 100 µM | > 100 µM | 73.6% |  |  |
| C=C1[C@@H](O)[C@@H]2O[C@]3(CC[C@H](/C=C/[C@@H](C)[C@@H]4CC(C)=C[C@@]5(O[C@H](C[C@@](C)(O)C(=O)O)CC[C@H]5O)O4)O3)CC[C@H]2O[C@@H]1[C@@H](O)C[C@H](C)[C@H]1O[C@@]2(CCCCO2)CC[C@H]1C [OA, okadaic acid] |  |  |  |  |  |  |  |  |  |  |  |  |  | reduction of cell viability of hippocampal slices (rat hippocampal slices [11]): 30% |
| COc1ccc2[nH]cc(CCNC(C)=O)c2c1 [Melatonin] |  |  |  |  |  |  |  |  |  |  |  |  | 52.5% | Glial cultures LD50 (primary glial cultures [12]): > 100 µM; SH-SY5Y LD50 [13]: > 100 µM |
| Cc1[nH]nc2c1C(c1cccc(Cl)c1)C(C#N)=C(N)N2 (centres unmarked) [4d] | 0.78 ± 1.98 µM | 0.63 T. Eq. and 0.63 ± 0.09 T. Eq. | 76.0 ± 6.5% |  | CNS+ | 11.8 ± 3 ×10⁻⁶ cm/s | 22.8 ± 4.63 µM | 1.05 ± 0.3 µM | 0.74 µM | > 100 µM | > 100 µM | 72.3% | 32.0% | survival percentage, high K+ toxicity [14]: 61.4% |
| Cc1[nH]nc2c1C(c1ccncc1)C(C#N)=C(N)N2 (centres unmarked) [4l] | 15.6 ± 3.35 µM | 1.1 T. Eq. and 1.10 ± 0.13 T. Eq. | 68.9 ± 4.5% |  | CNS+ | 5 ± 2.9 ×10⁻⁶ cm/s | 22.9 ± 4.23 µM | 10.2 ± 3.2 µM | 7.14 µM | > 100 µM | > 100 µM |  | 71.6% | percentage of protection, okadaic acid toxicity [4]: over 50%; survival percentage, high K+ toxicity [14]: 78.9% |
| Cc1[nH]nc2c1C(c1ccc(Br)cc1)C(C#N)=C(N)N2 (centres unmarked) [4g, 6-amino-4-(4-bromophenyl)-3-methyl-4,7-dihydro-2H-pyrazolo[3,4-b]pyridine-5-carbonitrile] | 4.5 ± 0.6 µM | 0.96 T. Eq. and 0.96 ± 0.05 T. Eq. | 62% and 62.1 ± 1.6% | 86.7% | CNS+ | 7.2 ± 2.4 ×10⁻⁶ cm/s | 24.1 ± 3.74 µM | 2.35 ± 1.1 µM | 1.65 µM | > 100 µM | > 100 µM |  | 59.7% | fold more potent as anti-inflammatory than 4f ([1]; ratio of nitrite reduction EC50 values): 2.2 fold; BBB permeation prediction in words ([5]; PAMPA): predicted to cross the BBB; free radical production (H2DCFDA fluorescence) (rat hippocampal slices [15]): reduced free radical production to basal conditions |
